According to the supplement of paper PMC10627819:

Key:
[1] = system: B. subtilis 168; assay: fitness (endpoint OD595 vs no drug) (fraction); higher = more growth
Summary of the method: (§1)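 With the first reading as background, OD595 was measured every 30 min for 14 h in 384-well plates kept at 37 °C and inoculated at OD595 0.01. TSB, LB Lennox or CY was the medium. Fitness is the optical density at the transition into stationary phase divided by the robust mean of no-drug control wells, with a cap of 1.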

[2] = system: S. aureus DSM 20231; assay: as above
Summary of the method: as §1

[3] = system: S. aureus Newman; assay: as above
Summary of the method: as §1

[4] = system: S. pneumoniae D39V; assay: as above
Summary of the method: as §1

[5] = system: B. subtilis 168; assay: Bliss interaction score (quartile over a dose matrix) (fitness difference); higher = more antagonism (negative = synergy)
Summary of the method: (§2)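 Combination data were used to infer fitness under each single drug. Fitness is the OD595 at entry into stationary phase divided by the robust mean of the plate's no-drug wells, with a cap of 1. The Bliss score is the observed minus the expected product fitness, summarised by quartiles over technical, biological and donor/recipient replicates.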

[6] = system: S. aureus DSM 20231; assay: as above
Summary of the method: as §2

[7] = system: S. aureus Newman; assay: as above
Summary of the method: as §2

[8] = system: S. pneumoniae D39V; assay: as above
Summary of the method: as §2
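Throughout, for Bliss interaction score (quartile over a dose matrix): first quartile when negative (synergy) and third quartile when positive (antagonism).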

C[n+]1ccc(-c2cc[n+](C)cc2)cc1 [Paraquat] + COc1ccc(C[C@H](N)C(=O)N[C@H]2[C@@H](O)[C@H](n3cnc4c(N(C)C)ncnc43)O[C@@H]2CO)cc1 [Puromycin]
fitness
Details	first compound 1.25 µg/mL	first compound 1.5 µg/mL	first compound 2.5 µg/mL	first compound 3 µg/mL	first compound 5 µg/mL	first compound 6 µg/mL
[1], partner 0.39 µg/mL	0.957	–	0.913	–	0.792	–
[1], partner 0.78 µg/mL	0.924	–	0.894	–	0.779	–
[1], partner 1.56 µg/mL	0.883	–	0.858	–	0.747	–
[2], partner 0.39 µg/mL	0.978	–	0.98	–	0.977	–
[2], partner 0.78 µg/mL	0.97	–	≥ 1	–	0.983	–
[2], partner 1.56 µg/mL	0.964	–	≥ 1	–	0.989	–
[3], partner 0.39 µg/mL	0.937	–	0.965	–	0.979	–
[3], partner 0.78 µg/mL	≥ 1	–	0.99	–	0.981	–
[3], partner 1.56 µg/mL	≥ 1	–	0.971	–	0.994	–
[4], partner 1 µg/mL	–	0.996	–	≥ 1	–	≥ 1
[4], partner 2 µg/mL	–	0.973	–	0.982	–	0.966
[4], partner 4 µg/mL	–	0.852	–	0.856	–	0.861

fitness, [2], one replicate
Details	first compound 1.25 µg/mL	first compound 2.5 µg/mL	first compound 5 µg/mL
partner 3.12 µg/mL	0.926	0.976	0.965
partner 6.24 µg/mL	0.732	0.703	0.689

Details	Bliss interaction score
[5]	0.0238
[6]	0.0717
[7]	0.0892
[8]	0.135

C[n+]1ccc(-c2cc[n+](C)cc2)cc1 [Paraquat] + CN1C2=CC=CC=C2N=C3C1=CC=CC3=O [Pyocyanin]
fitness
Details	first compound 1.25 µg/mL	first compound 1.5 µg/mL	first compound 2.5 µg/mL	first compound 3 µg/mL	first compound 5 µg/mL	first compound 6 µg/mL
[1], partner 1.25 µg/mL	0.918	–	0.903	–	0.802	–
[1], partner 2.5 µg/mL	0.866	–	0.838	–	0.673	–
[1], partner 5 µg/mL	0.721	–	0.707	–	0.534	–
[2], partner 1.25 µg/mL	0.918	–	0.931	–	0.905	–
[2], partner 2.5 µg/mL	0.891	–	0.879	–	0.858	–
[2], partner 5 µg/mL	0.627	–	0.647	–	0.595	–
[3], partner 1.25 µg/mL	0.838	–	0.799	–	0.825	–
[3], partner 2.5 µg/mL	0.821	–	0.776	–	0.751	–
[3], partner 5 µg/mL	0.401	–	0.382	–	0.366	–
[4], partner 0.325 µg/mL	–	≥ 1	–	≥ 1	–	≥ 1
[4], partner 0.65 µg/mL	–	0.954	–	0.97	–	0.955

[4], partner 1.3 µg/mL, one replicate
Details	fitness
first compound 1.5 µg/mL	0.528
first compound 3 µg/mL	0.597
first compound 6 µg/mL	0.601

Details	Bliss interaction score
[5]	-0.0646
[6]	-0.0554
[7]	0.0765
[8]	-0.0783

CC[C@H]1OC(=O)[C@H](C)[C@@H](O[C@H]2C[C@@](C)(OC)[C@@H](O)[C@H](C)O2)[C@H](C)[C@@H](O[C@@H]2O[C@H](C)C[C@H](N(C)C)[C@H]2O)[C@](C)(O)C[C@@H](C)CN(C)[C@H](C)[C@@H](O)[C@]1(C)O [Azithromycin] + Cc1onc(-c2ccccc2)c1C(=O)N[C@@H]1C(=O)N2[C@@H]1SC(C)(C)[C@@H]2C(=O)O [Oxacillin]
fitness
Details	first compound 0.125 µg/mL	first compound 0.25 µg/mL	first compound 0.5 µg/mL	first compound 1 µg/mL
[1], partner 0.002 µg/mL	–	0.881	0.87	0.535
[1], partner 0.004 µg/mL	–	0.851	0.818	0.503
[1], partner 0.0078 µg/mL	–	≥ 1	0.888	–
[1], partner 0.008 µg/mL	–	0.824	0.842	0.453
[1], partner 0.0155 µg/mL	–	0.964	0.887	–
[1], partner 0.031 µg/mL	–	0.983	0.908	–
[2], partner 0.0156 µg/mL	0.722	0.786	–	–
[2], partner 0.0312 µg/mL	0.617	0.62	0.183	–
[2], partner 0.0625 µg/mL	0.482	0.54	0.379	–
[3], partner 0.0156 µg/mL	0.723	0.726	–	–
[3], partner 0.0312 µg/mL	0.715	0.725	0.365	–
[3], partner 0.0625 µg/mL	0.624	0.622	0.31	–

fitness, [1], one replicate
Details	first compound 0.5 µg/mL	first compound 1 µg/mL	first compound 2 µg/mL
partner 0.075 µg/mL	0.582	0.318	0.0267
partner 0.15 µg/mL	0.037	0.0238	0.016
partner 0.3 µg/mL	0.0266	0.0264	0.0201

Details	Bliss interaction score
[5]	0.0492
[6]	-0.0461
[7]	0.0591
[8]	0.0949

CC[C@H]1OC(=O)[C@H](C)[C@@H](O[C@H]2C[C@@](C)(OC)[C@@H](O)[C@H](C)O2)[C@H](C)[C@@H](O[C@@H]2O[C@H](C)C[C@H](N(C)C)[C@H]2O)[C@](C)(O)C[C@@H](C)CN(C)[C@H](C)[C@@H](O)[C@]1(C)O [Azithromycin] + CN(N=O)C(=O)N[C@@H](C=O)[C@@H](O)[C@H](O)[C@H](O)CO [Streptozotocin]
fitness
Details	partner 0.15 µg/mL	partner 0.3 µg/mL	partner 0.6 µg/mL
[1], first compound 0.25 µg/mL	0.938	0.952	0.918
[1], first compound 0.5 µg/mL	0.897	0.902	0.842
[2], first compound 0.125 µg/mL	0.796	0.742	0.703
[2], first compound 0.25 µg/mL	0.72	0.73	0.736
[2], first compound 0.5 µg/mL	0.37	0.293	–
[3], first compound 0.125 µg/mL	0.81	0.707	0.564
[3], first compound 0.25 µg/mL	0.811	0.76	0.657
[3], first compound 0.5 µg/mL	0.576	0.5	0.367

Details	Bliss interaction score
[5]	0.0551
[6]	-0.0752
[7]	0.0643
[8]	0.0501

CC[C@H]1OC(=O)[C@H](C)[C@@H](O[C@H]2C[C@@](C)(OC)[C@@H](O)[C@H](C)O2)[C@H](C)[C@@H](O[C@@H]2O[C@H](C)C[C@H](N(C)C)[C@H]2O)[C@](C)(O)C[C@@H](C)CN(C)[C@H](C)[C@@H](O)[C@]1(C)O [Azithromycin] + Cc1ncc([N+](=O)[O-])n1CCO [Metronidazole]
fitness
Details	partner 0.625 µg/mL	partner 1.25 µg/mL	partner 2.5 µg/mL
[1], first compound 0.25 µg/mL	0.917	0.916	0.897
[1], first compound 0.5 µg/mL	–	–	0.878
[2], first compound 0.125 µg/mL	0.932	0.993	≥ 1
[2], first compound 0.25 µg/mL	0.928	0.982	0.949
[3], first compound 0.125 µg/mL	0.896	0.915	0.947
[3], first compound 0.25 µg/mL	0.831	0.906	0.823
[3], first compound 0.5 µg/mL	0.73	–	0.67

fitness, [3], one replicate
Details	first compound 0.125 µg/mL	first compound 0.25 µg/mL	first compound 0.5 µg/mL
partner 0.781 µg/mL	0.882	0.942	0.659
partner 1.562 µg/mL	0.875	0.924	0.642
partner 3.124 µg/mL	0.859	0.928	0.635

Details	Bliss interaction score
[5]	0.0931
[6]	0.0787
[7]	-0.0641
[8]	0.102

CC[C@H]1OC(=O)[C@H](C)[C@@H](O[C@H]2C[C@@](C)(OC)[C@@H](O)[C@H](C)O2)[C@H](C)[C@@H](O[C@@H]2O[C@H](C)C[C@H](N(C)C)[C@H]2O)[C@](C)(O)C[C@@H](C)CN(C)[C@H](C)[C@@H](O)[C@]1(C)O [Azithromycin] + C[n+]1ccc(-c2cc[n+](C)cc2)cc1 [Paraquat]
fitness
Details	partner 1.25 µg/mL	partner 2.5 µg/mL	partner 5 µg/mL
[1], first compound 0.25 µg/mL	0.947	0.919	0.884
[1], first compound 0.5 µg/mL	0.906	0.866	0.759
[2], first compound 0.125 µg/mL	0.827	0.846	0.794
[2], first compound 0.25 µg/mL	0.814	0.75	0.823
[2], first compound 0.5 µg/mL	0.473	0.51	0.514
[3], first compound 0.125 µg/mL	0.924	0.904	0.853
[3], first compound 0.25 µg/mL	0.882	0.845	0.789
[3], first compound 0.5 µg/mL	0.55	0.575	0.496

Details	Bliss interaction score
[5]	0.0865
[6]	-0.095
[7]	-0.0372
[8]	0.0486

CC[C@H]1OC(=O)[C@H](C)[C@@H](O[C@H]2C[C@@](C)(OC)[C@@H](O)[C@H](C)O2)[C@H](C)[C@@H](O[C@@H]2O[C@H](C)C[C@H](N(C)C)[C@H]2O)[C@](C)(O)C[C@@H](C)CN(C)[C@H](C)[C@@H](O)[C@]1(C)O [Azithromycin] + CC1=C\[C@@H](O)CC(=O)Cc2nc(co2)C(=O)N2CCC=C2C(=O)O[C@H](C(C)C)[C@H](C)/C=C/C(=O)NC\C=C\1 [Virginiamycin M1]
fitness
Details	partner 0.0625 µg/mL	partner 0.125 µg/mL	partner 0.25 µg/mL
[1], first compound 0.25 µg/mL	0.911	0.876	0.97
[1], first compound 0.5 µg/mL	0.803	0.814	0.869
[2], first compound 0.125 µg/mL	0.817	0.872	0.894
[2], first compound 0.25 µg/mL	0.77	0.873	0.854
[2], first compound 0.5 µg/mL	0.515	0.362	–
[3], first compound 0.125 µg/mL	0.912	0.904	0.912
[3], first compound 0.25 µg/mL	0.935	0.913	0.92
[3], first compound 0.5 µg/mL	0.744	0.707	0.722

fitness, one replicate
Details	first compound 0.125 µg/mL	first compound 0.25 µg/mL	first compound 0.5 µg/mL
[2], partner 0.5 µg/mL	0.981	0.86	0.728
[2], partner 1 µg/mL	0.791	0.798	0.505
[3], partner 0.5 µg/mL	0.937	0.9	0.859
[3], partner 1 µg/mL	≥ 1	≥ 1	0.89
[3], partner 2 µg/mL	0.904	0.907	0.764

Details	Bliss interaction score
[5]	0.0627
[6]	-0.0726
[7]	0.0851
[8]	0.0642
